Source: paper PMC8187479, “Sugar phosphate activation of the stress sensor eIF2B” (Nature Communications, 2021)
Numbering of substitutions follows the chain as printed. Values joined by “and” are separate entries in the source; they are usually repeats but may differ in a detail not shown here. Equal values may be shown once. “Also recorded” adds a separate entry of the source.

Assays:
[1] = target: T1, eIF2Bα^V183F (Homo sapiens, UniProt Q14232, V183F); assay: Size-exclusion chromatography of recombinant eIF2Bα V183F, alone or with eIF2B(βδγε); assay type: biochemical; conditions: SEC, eIF2Bα V183F alone
T1 construct: made in house; host or cells: E. coli BL21(DE3)
T1 sequence (Q14232 1-305 V183F): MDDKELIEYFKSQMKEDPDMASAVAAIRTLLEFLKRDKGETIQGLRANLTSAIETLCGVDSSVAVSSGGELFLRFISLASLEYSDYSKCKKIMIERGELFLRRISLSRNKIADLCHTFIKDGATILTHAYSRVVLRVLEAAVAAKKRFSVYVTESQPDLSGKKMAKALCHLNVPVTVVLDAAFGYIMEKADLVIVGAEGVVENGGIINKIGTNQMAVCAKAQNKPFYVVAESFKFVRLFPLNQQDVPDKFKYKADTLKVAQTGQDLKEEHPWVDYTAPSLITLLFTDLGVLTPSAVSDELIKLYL
Description: Purified proteins were thawed and centrifuged at 20,000 × g, 10 min, 4 °C to remove any potential precipitate. Concentrations of eIF2B(βδγε) and eIF2Bα were normalized to 2 μM and 2.4 μM, respectively. 0.2 mL of each mixture was injected onto a Superose 6 Increase 10/300 column connected to an AKTA Pure 25 FPLC system (GE Healthcare). The system was run at 0.5 mL/min for 1 h using 25 mM HEPES, 200 mM KCl, 2 mM MgCl2, 1 mM DTT, pH 7.5 as the mobile phase. For conditions with ISRIB, the protein samples and mobile phase were supplemented with 500 nM ISRIB. For conditions with F6P, the protein samples and mobile phase were supplemented with 200 μM F6P. UV280 measurements were obtained directly by the instrument.

[2] = target: T2, eIF2Bα (Homo sapiens, UniProt Q14232); assay: Differential scanning fluorimetry (Protein Thermal Shift), eIF2Bα Tm; assay type: binding; conditions: for Tm of eIF2Bα: individual replicates Rep 1-4, control without metabolite about 64.1
T2 construct: made in house; host or cells: E. coli BL21(DE3)
T2 sequence (Q14232 1-305): T1 sequence (Q14232 1-305 V183F) with F183V
Description: The effect of metabolite binding on eIF2Bα Tm was assessed using the Protein Thermal Shift assay (Thermo Fisher), following manufacturer’s instructions. Briefly, reaction conditions for each 20 μL reaction were: 1.1 μg (1.5 μM) of eIF2Bα, 5 μl Thermal Shift buffer, 1X Thermal Shift dye, and metabolites in dose response. Reactions were run in 384-well format on a QuantStudio 6 Flex instrument (Thermo Fisher). The resulting melt curves were analyzed using Protein Thermal Shift Software, and eIF2Bα Tms for each condition were calculated by fitting to the Boltzmann function.

[3] = target: T3, eIF2B (Homo sapiens, UniProt P49770+Q14232+Q9UI10); assay: eIF2B GEF activity assay, targeted, recombinant wild-type eIF2B; assay type: biochemical; conditions: dose-response with eIF2B; 95% CI 2.2-5.3 μM; read-out: EC50 of GEF activation (GDP release t1/2)
T3 construct: made in house; host or cells: eIF2Bα: E. coli BL21(DE3)
T3 sequence (Q14232 whole entry): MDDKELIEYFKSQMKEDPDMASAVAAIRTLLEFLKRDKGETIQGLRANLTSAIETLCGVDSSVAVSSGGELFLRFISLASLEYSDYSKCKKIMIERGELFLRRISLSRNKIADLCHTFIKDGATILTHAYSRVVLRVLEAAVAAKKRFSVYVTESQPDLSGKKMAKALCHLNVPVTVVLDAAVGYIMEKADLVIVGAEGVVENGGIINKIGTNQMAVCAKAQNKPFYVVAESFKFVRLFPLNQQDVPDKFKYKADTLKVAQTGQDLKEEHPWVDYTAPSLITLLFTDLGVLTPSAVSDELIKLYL
T3 sequence (P49770 whole entry): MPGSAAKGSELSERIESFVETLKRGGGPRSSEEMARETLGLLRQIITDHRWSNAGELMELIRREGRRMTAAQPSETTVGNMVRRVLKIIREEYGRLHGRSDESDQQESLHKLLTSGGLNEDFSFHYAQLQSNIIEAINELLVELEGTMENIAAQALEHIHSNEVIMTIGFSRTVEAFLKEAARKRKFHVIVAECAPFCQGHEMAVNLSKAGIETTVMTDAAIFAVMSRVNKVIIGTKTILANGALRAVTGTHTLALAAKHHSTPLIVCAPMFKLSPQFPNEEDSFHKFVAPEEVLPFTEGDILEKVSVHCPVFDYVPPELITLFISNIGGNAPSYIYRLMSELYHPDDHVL
T3 sequence (Q9UI10 whole entry): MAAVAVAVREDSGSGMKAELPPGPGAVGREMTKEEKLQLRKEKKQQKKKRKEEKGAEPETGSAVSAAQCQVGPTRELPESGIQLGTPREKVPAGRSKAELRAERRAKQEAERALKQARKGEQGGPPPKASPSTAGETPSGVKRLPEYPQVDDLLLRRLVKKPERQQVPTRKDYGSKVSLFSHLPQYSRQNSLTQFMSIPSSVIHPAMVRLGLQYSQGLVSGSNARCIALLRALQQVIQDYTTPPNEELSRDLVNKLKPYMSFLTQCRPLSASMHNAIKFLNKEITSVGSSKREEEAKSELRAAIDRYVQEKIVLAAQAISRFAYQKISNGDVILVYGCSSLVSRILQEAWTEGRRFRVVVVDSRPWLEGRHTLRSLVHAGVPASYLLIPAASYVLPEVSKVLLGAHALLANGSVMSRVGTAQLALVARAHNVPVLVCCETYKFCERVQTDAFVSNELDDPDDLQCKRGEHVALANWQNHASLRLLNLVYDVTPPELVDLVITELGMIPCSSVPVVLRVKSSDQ
T3 sequence (Q9NR50 whole entry partner): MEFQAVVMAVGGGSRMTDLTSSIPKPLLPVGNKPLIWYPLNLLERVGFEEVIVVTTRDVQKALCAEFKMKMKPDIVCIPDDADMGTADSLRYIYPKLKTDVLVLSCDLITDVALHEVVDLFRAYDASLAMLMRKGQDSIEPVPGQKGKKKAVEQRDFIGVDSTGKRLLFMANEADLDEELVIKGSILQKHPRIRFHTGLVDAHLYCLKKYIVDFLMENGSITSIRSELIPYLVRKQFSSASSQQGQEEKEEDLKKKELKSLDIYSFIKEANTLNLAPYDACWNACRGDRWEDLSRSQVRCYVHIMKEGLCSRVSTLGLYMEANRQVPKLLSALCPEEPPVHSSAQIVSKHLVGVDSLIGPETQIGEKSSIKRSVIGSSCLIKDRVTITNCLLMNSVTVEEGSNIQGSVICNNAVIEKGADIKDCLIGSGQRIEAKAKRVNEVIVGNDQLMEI
T3 sequence (Q13144 whole entry partner): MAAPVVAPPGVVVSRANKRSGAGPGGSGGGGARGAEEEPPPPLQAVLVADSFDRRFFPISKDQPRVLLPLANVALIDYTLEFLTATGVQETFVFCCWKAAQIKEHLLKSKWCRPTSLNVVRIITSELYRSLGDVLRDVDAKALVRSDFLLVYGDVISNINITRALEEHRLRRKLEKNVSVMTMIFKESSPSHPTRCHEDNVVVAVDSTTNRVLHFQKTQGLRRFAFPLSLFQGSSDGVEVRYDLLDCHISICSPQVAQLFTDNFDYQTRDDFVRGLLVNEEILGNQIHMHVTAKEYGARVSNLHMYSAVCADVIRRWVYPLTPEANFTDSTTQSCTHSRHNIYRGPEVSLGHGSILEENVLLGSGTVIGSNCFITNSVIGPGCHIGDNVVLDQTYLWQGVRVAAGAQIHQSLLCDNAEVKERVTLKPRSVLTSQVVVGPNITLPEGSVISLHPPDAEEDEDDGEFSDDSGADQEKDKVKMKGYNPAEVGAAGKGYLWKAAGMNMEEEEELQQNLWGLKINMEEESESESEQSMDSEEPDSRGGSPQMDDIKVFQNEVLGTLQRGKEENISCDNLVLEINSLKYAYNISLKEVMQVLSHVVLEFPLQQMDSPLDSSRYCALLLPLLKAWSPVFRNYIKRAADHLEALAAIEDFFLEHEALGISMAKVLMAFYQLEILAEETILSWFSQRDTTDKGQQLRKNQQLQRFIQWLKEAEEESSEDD
Description: Bodipy-FL-GDP-loaded eIF2 was used as a substrate for recombinant eIF2B. The assay was performed in 384-well plates. Reactions were read on a SpectraMax i3x plate reader (Molecular Devices) using the instrument’s Softmax Pro software with the following parameters: plate temperature = 25 °C; excitation wavelength = 485 nm (15 nm width); emission wavelength = 535 nm (25 nm width); read duration = 30 min at 45 s intervals. Data were analyzed in Prism. GDP release half-lives were calculated by fitting single-exponential decay curves.
For unbiased screening, MIDAS metabolite libraries at 10 mM stock concentration were dispensed into wells of the assay plate using an Echo Acoustic Liquid Handler (Labcyte). In a final assay volume of 10 μL/well, the following conditions were kept constant: 25 nM Bodipy-FL-GDP-loaded eIF2, 4 nM phospho-eIF2, 0.1 mM GDP, 1 mg/mL BSA, 1 nM eIF2B, 10 μM metabolite. A single well was run for each metabolite. For targeted experiments with recombinant wild-type and mutant eIF2Bα, the following conditions were used: 50 nM Bodipy-FL-GDP-loaded eIF2, 0.1 mM GDP, 1 mg/ml BSA, 20 nM eIF2B. For targeted experiments with HEK293T lysates, the following conditions were used: 50 nM Bodipy-FL-GDP-loaded eIF2, 0.1 mM GDP, 1 mg/ml BSA, 0.1 or 0.3 mg/ml lysates.

[4] = target: T4, eIF2Bα^N208Y (Homo sapiens, UniProt Q14232, N208Y); assay: Isothermal titration calorimetry, eIF2Bα N208Y; assay type: binding; conditions: ITC
T4 construct: made in house; host or cells: E. coli BL21(DE3)
T4 sequence (Q14232 1-305 N208Y): T1 sequence (Q14232 1-305 V183F) with F183V, N208Y
Description: Interactions between recombinant protein and sugar phosphates were conducted with a MicroCal PEAQ-ITC (Malvern Panalytical Inc.). Experiments were performed in 25 mM HEPES, 150 mM NaCl, pH 7.5 at 20 °C. The sugar phosphate concentration in the syringe was 1 mM or 1.5 mM, and ~3.5 μL aliquots were injected into cells containing 300 μL eIF2Bα or eIF2B(βδγε) at a concentration of 20–30 μM. The final titration curves were fitted using MicroCal ITC data analysis software, assuming a single binding site per monomer.

O=C(CO)[C@@H](O)[C@H](O)[C@H](O)COP(=O)(O)O [F6P, fructose-6-phosphate]
monomer-to-dimer shift of eIF2Bα V183F [1]: induced a partial shift from the monomer to the dimer peak
Tm of eIF2Bα ([2]; 0.33 mM metabolite): 64.8334 °C and 64.3598 °C and 65.3978 °C and 64.9639 °C
Tm of eIF2Bα ([2]; 1 mM metabolite): 66.8037 °C and 65.9412 °C and 67.2839 °C and 67.2375 °C
Tm of eIF2Bα ([2]; 3.3 mM metabolite): 67.7489 °C and 67.4475 °C and 67.8791 °C and 67.7249 °C
Tm of eIF2Bα ([2]; 10 mM metabolite): 69.8589 °C and 69.0448 °C and 70.0639 °C and 69.9908 °C
Tm shift of eIF2Bα2 ([2]; largest shift seen in dose-response): 6 °C
EC50 [3]: 3.4 µM
interaction with eIF2Bα N208Y [4]: does not interact; also recorded: abrogates binding
